Laboratory results taken from US10696615B2, “Prenylated hydroxystilbenes” (The University of Sydney, priority 2011, dated 2020).

Assays:
MOLT-4 = assay: NCI in vitro cancer screen, Leukemia; format: cell-based, human; conditions: MOLT, unit not printed (M)
SF-268 = assay: NCI in vitro cancer screen, CNS Cancer; format: cell-based, human; conditions: SF-268, unit not printed (M)
MALME-3M = assay: NCI in vitro cancer screen, Melanoma; format: cell-based, human; conditions: MALME-3M, unit not printed (M)
UACC-257 = assay: NCI in vitro cancer screen, Melanoma; format: cell-based, human; conditions: UACC-257, unit not printed (M)
HS 578T = assay: NCI in vitro cancer screen, Breast Cancer; format: cell-based, human; conditions: unit not printed (M)
HCT-15 = assay: NCI in vitro cancer screen, Colon Cancer; format: cell-based, human; conditions: HCT-15, unit not printed (M)
SR = assay: NCI in vitro cancer screen, Leukemia; format: cell-based, human; conditions: unit not printed (M)
M14 = assay: NCI in vitro cancer screen, Melanoma; format: cell-based, human; conditions: M14, unit not printed (M)
COLO 205 = assay: NCI in vitro cancer screen, Colon Cancer; format: cell-based, human; conditions: COLO, unit not printed (M)
SF-539 = assay: NCI in vitro cancer screen, CNS Cancer; format: cell-based; conditions: SF-539, unit not printed (M)
HL-60 (TB) = assay: NCI in vitro cancer screen, Leukemia; format: cell-based, human; conditions: HL-60(TB), unit not printed (M)
[1] = test system: MDA-MB-231 (MDA-MB-231/ATCC); assay: NCI in vitro cancer screen, Breast Cancer; format: cell-based, human; conditions: MDA-MB-231/ATCC, unit not printed (M)
OVCAR-4 = assay: NCI in vitro cancer screen, Ovarian Cancer; format: cell-based, human; conditions: OVCAR-4, unit not printed (M)
ADR-RES (NCI/ADR-RES) = assay: NCI in vitro cancer screen, Ovarian Cancer; format: cell-based, human; conditions: NCI/ADR-RES, unit not printed (M)
SN12C = assay: NCI in vitro cancer screen, Renal Cancer; format: cell-based, human; conditions: unit not printed (M)
HCT-116 = assay: NCI in vitro cancer screen, Colon Cancer; format: cell-based, human; conditions: HCT-116, unit not printed (M)
IGROV1 = assay: NCI in vitro cancer screen, Ovarian Cancer; format: cell-based, human; conditions: IGROV1, unit not printed (M)
HOP-92 = assay: NCI in vitro cancer screen, Non-Small Cell Lung Cancer; format: cell-based, human; conditions: HOP (second HOP line), unit not printed (M)
HCC-2998 = assay: NCI in vitro cancer screen, Colon Cancer; format: cell-based, human; conditions: HCC-2998, unit not printed (M)
NCI-H226 = assay: NCI in vitro cancer screen, Non-Small Cell Lung Cancer; format: cell-based, human; conditions: NCI-H226, unit not printed (M)
HOP-62 = assay: as above; format: cell-based, human; conditions: HOP (first HOP line), unit not printed (M)
CAKI-1 = assay: NCI in vitro cancer screen, Renal Cancer; format: cell-based, human; conditions: CAKI-1, unit not printed (M)
LOX IMVI = assay: NCI in vitro cancer screen, Melanoma; format: cell-based, human; conditions: unit not printed (M)
RPMI-8226 = assay: NCI in vitro cancer screen, Leukemia; format: cell-based, human; conditions: RPMI, unit not printed (M)
EKVX = assay: NCI in vitro cancer screen, Non-Small Cell Lung Cancer; format: cell-based, human; conditions: unit not printed (M)
A498 = assay: NCI in vitro cancer screen, Renal Cancer; format: cell-based, human; conditions: A498, unit not printed (M)
786-0 = assay: NCI in vitro cancer screen, Renal Cancer; format: cell-based, human; conditions: 786-0, unit not printed (M)
NCI-H522 = assay: NCI in vitro cancer screen, Non-Small Cell Lung Cancer; format: cell-based, human; conditions: NCI-H522, unit not printed (M)
[2] = Homo sapiens, read-out: LC50 (the source's name)

Q: What does the source list for `COc1cc(/C=C/c2cc(O)cc(O)c2CC=C(C)C)ccc1O` [USYDS10, (E)-2-(3-methyl-2-buten-1-yl)-3,4′,5-trihydroxy-3′-methoxystilbene]?
A: GI50 (MOLT-4; Homo sapiens, MOLT-4): 0.596 µM; CC50 (MOLT-4; Homo sapiens, MOLT-4, read-out: LC50 (the source's name)): > 100 µM; TGI (MOLT-4): 1.99E−5; GI50 (SF-268; Homo sapiens): 1.4 µM; CC50 (SF-268; [2]): > 100 µM; TGI (SF-268): 4.96E−5; GI50 (MALME-3M; Homo sapiens): 18.7 µM; CC50 (MALME-3M; [2]): 92.9 µM; TGI (MALME-3M): 4.17E−5; GI50 (UACC-257; Homo sapiens): 11.7 µM; CC50 (UACC-257; [2]): 73.7 µM; TGI (UACC-257): 2.94E−5; GI50 (HS 578T; Homo sapiens): 0.292 µM; CC50 (HS 578T; [2]): > 100 µM; TGI (HS 578T): 2.60E−5; TGI (HCT-15): 2.09E−5; GI50 (HCT-15; Homo sapiens): 0.498 µM; CC50 (HCT-15; [2]): > 100 µM; GI50 (SR; Homo sapiens): 0.188 µM; CC50 (SR; [2]): > 100 µM; TGI (SR): >1.00E−4; GI50 (M14; Homo sapiens): 0.284 µM; CC50 (M14; [2]): 41.6 µM; TGI (M14): 1.42E−5; TGI (COLO 205): 2.97E−5; GI50 (COLO 205; Homo sapiens, COLO 205): 15.3 µM; CC50 (COLO 205; Homo sapiens, COLO 205, read-out: LC50 (the source's name)): 57.7 µM; GI50 (SF-539; Homo sapiens): 0.376 µM; CC50 (SF-539; [2]): 41.7 µM; TGI (SF-539): 1.29E−5; TGI (HL-60 (TB)): 1.88E−6; GI50 (HL-60 (TB); Homo sapiens): 0.327 µM; CC50 (HL-60 (TB); [2]): > 100 µM; GI50 ([1]; Homo sapiens): 0.642 µM; CC50 [1, 2]: > 100 µM; TGI [1]: 3.20E−5; GI50 (OVCAR-4; Homo sapiens): 1.03 µM; CC50 (OVCAR-4; [2]): 57.7 µM; TGI (OVCAR-4): 1.82E−5; GI50 (ADR-RES (NCI/ADR-RES); Homo sapiens): 0.183 µM; CC50 (ADR-RES (NCI/ADR-RES); [2]): > 100 µM; TGI (ADR-RES (NCI/ADR-RES)): 8.04E−7; GI50 (SN12C; Homo sapiens): 0.671 µM; CC50 (SN12C; [2]): > 100 µM; TGI (SN12C): 2.98E−5; TGI (HCT-116): 1.30E−5; GI50 (HCT-116; Homo sapiens): 0.48 µM; LC50 (concentration killing 50% of cells) (HCT-116; Homo sapiens): 42.7 µM; GI50 (IGROV1; Homo sapiens, IGROV-1): 2.03 µM; CC50 (IGROV1; Homo sapiens, IGROV-1, read-out: LC50 (the source's name)): > 100 µM; TGI (IGROV1): >1.00E−4; TGI (HOP-92): 2.63E−5; GI50 (HOP-92; Homo sapiens, HOP-92): 0.398 µM; CC50 (HOP-92; Homo sapiens, HOP-92, read-out: LC50 (the source's name)): 93.2 µM; TGI (HCC-2998): 1.19E−5; GI50 (HCC-2998; Homo sapiens): 1.81 µM; CC50 (HCC-2998; [2]): 39.8 µM; GI50 (NCI-H226; Homo sapiens): 5.35 µM; LC50 (50% lethal concentration) (NCI-H226; Homo sapiens): > 100 µM; TGI (NCI-H226): 3.50E−5; TGI (HOP-62): 1.77E−5; GI50 (HOP-62; Homo sapiens, HOP-62): 0.581 µM; CC50 (HOP-62; Homo sapiens, HOP-62, read-out: LC50 (the source's name)): 42.3 µM; TGI (CAKI-1): 6.68E−5; GI50 (CAKI-1; Homo sapiens): 0.539 µM; CC50 (CAKI-1; [2]): > 100 µM; GI50 (LOX IMVI; Homo sapiens): 0.572 µM; CC50 (LOX IMVI; [2]): 80 µM; TGI (LOX IMVI): 1.93E−5; GI50 (RPMI-8226; Homo sapiens, RPMI-8226): 0.324 µM; CC50 (RPMI-8226; Homo sapiens, RPMI-8226, read-out: LC50 (the source's name)): > 100 µM; TGI (RPMI-8226): 1.63E−5; GI50 (EKVX; Homo sapiens): 12.2 µM; CC50 (EKVX; [2]): > 100 µM; TGI (EKVX): 7.34E−5; TGI (A498): 7.85E−6; GI50 (A498; Homo sapiens): 2.17 µM; CC50 (A498; [2]): 34.8 µM; TGI (786-0): 2.01E−5; GI50 (786-0; Homo sapiens): 0.681 µM; LC50 (50% net cell kill) (786-0; Homo sapiens): 74.5 µM; GI50 (NCI-H522; Homo sapiens): 0.349 µM; CC50 (NCI-H522; [2]): 42.2 µM; TGI (NCI-H522): 1.46E−5
